Test results reported in patent US11649255B2, “Indazoles as hematopoietic progenitor kinase 1 (HPK1) inhibitors and methods using same” (1st Biotherapeutics, Inc., priority 2020, dated 2023).

The molecules below were run against recombinant human HPK1 (Homo sapiens (Human), UniProt Q92918) (assay: HPK1 kinase assay (ADP-Glo)). Conditions: 25 μM ATP, MBP substrate.
Type: biochemical
How it was run: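 Activity was read as ADP formed, detected by ADP-Glo luminescence after the reaction of 5 ng recombinant human HPK1 with MBP and ATP (stocks 0.5 μg/μl and 25 μM) for 40 min at 30 °C. Buffer was Tris pH 7.5 with MgCl2, BSA and DTT, with compound in 0.5% DMSO. IC50 came from inhibition curves.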

Sequence of recombinant human HPK1 (Q92918 whole entry): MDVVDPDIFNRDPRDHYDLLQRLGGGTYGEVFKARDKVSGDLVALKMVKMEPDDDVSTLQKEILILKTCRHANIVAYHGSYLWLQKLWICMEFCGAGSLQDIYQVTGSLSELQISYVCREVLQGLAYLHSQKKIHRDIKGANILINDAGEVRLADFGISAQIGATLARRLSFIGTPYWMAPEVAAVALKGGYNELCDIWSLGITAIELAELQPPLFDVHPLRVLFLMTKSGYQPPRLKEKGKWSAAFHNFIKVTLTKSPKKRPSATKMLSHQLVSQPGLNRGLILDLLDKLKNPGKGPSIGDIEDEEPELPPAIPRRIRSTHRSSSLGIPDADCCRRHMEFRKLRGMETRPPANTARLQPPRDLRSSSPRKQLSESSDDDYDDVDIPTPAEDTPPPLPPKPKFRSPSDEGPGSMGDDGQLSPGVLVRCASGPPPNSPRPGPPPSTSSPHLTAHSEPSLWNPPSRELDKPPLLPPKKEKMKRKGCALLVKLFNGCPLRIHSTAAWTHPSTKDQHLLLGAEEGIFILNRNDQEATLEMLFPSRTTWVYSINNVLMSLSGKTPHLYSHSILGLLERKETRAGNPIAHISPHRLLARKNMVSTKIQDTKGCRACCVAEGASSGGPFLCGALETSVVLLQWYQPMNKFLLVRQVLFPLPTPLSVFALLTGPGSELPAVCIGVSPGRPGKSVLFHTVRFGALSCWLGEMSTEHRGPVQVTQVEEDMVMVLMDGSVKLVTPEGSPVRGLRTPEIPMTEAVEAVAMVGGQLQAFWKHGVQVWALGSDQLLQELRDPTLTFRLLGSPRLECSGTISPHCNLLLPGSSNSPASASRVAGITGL

**Q.** With `CCOc1c(F)c(F)c2[nH]ncc2c1-c1ccn2nc(NC(=O)[C@@H]3C[C@@H]3F)cc2c1` [Example 611, (1S,2S)-N-(5-(5-ethoxy-6,7-difluoro-1H-indazol-4-yl)pyrazolo[1,5-a]pyridin-2-yl)-2-fluorocyclopropane-1-carboxamide] as the molecule, how does the IC50 read?
**A.** The IC50 was < 0.1 µM.

**Q.** With `C[S+]([O-])c1c(F)cc2[nH]ncc2c1-c1ccc2nc(NC(=O)[C@@H]3C[C@@H]3F)sc2n1` (stereo partly drawn) [Example 164, (1S,2S)-2-fluoro-N-(5-(6-fluoro-5-(methylsulfinyl)-1H-indazol-4-yl)thiazolo[5,4-b]pyridin-2-yl)cyclopropane-1-carboxamide] as the molecule, how does the IC50 read?
**A.** The IC50 was > 1 µM.

**Q.** Which IC50 does the source give for `Nc1c(F)c(Cl)c(-c2ccc3nc(NC(=O)[C@@H]4C[C@@H]4F)sc3c2)c2cn[nH]c12` [Example 68, (1S,2S)-N-(6-(7-amino-5-chloro-6-fluoro-1H-indazol-4-yl)benzo[d]thiazol-2-yl)-2-fluorocyclopropane-1-carboxamide] here?
**A.** Its IC50 is < 0.1 µM.

**Q.** Which IC50 does the source give for `O=C(Nc1cn2cc(-c3c(Br)ccc4[nH]ncc34)ccc2n1)C1CC1` [Example 228, N-(6-(5-bromo-1H-indazol-4-yl)imidazo[1,2-a]pyridin-2-yl)cyclopropanecarboxamide] here?
**A.** The IC50 was > 1 µM.

**Q.** For `O=C(Nc1cc2cc(-c3c(Cl)c(F)c(NC4CCC(O)CC4)c4[nH]ncc34)ccn2n1)[C@@H]1C[C@@H]1F` (stereo partly drawn) [Example 517, (1S,2S)-N-(5-(5-chloro-6-fluoro-7-((4-hydroxycyclohexyl)amino)-1H-indazol-4-yl)pyrazolo[1,5-a]pyridin-2-yl)-2-fluorocyclopropane-1-carboxamide], which IC50 is on record?
**A.** Its IC50 is < 0.1 µM.

**Q.** For `O=C(Nc1cn2cc(-c3c(Cl)c(F)c(Cn4cnnn4)c4[nH]ncc34)ccc2n1)[C@@H]1C[C@@H]1F` [Example 392, (1S,2S)-N-(6-(7-((1-tetrazol-1-yl)methyl)-5-chloro-6-fluoro-1H-indazol-4-yl)imidazo[1,2-a]pyridin-2-yl)-2-fluorocyclopropane-1-carboxamide], which IC50 is on record?
**A.** The IC50 was < 0.1 µM.

**Q.** Which IC50 does the source give for `CCOc1c(F)c(C)c(-c2ccc3nc(NC(=O)[C@@H]4C[C@@H]4F)sc3c2)c2cn[nH]c12` [Example 98, (1S,2S)-N-(6-(7-ethoxy-6-fluoro-5-methyl-1H-indazol-4-yl)benzo[d]thiazol-2-yl)-2-fluorocyclopropanecatboxamide] here?
**A.** The IC50 was < 0.1 µM.

**Q.** How did the IC50 turn out when `O=C(Nc1cn2cc(-c3c(Cl)c(F)c(Br)c4[nH]ncc34)ccc2n1)[C@@H]1C[C@@H]1F` [Example 261, (1S,2S)-N-(6-(7-bromo-5-chloro-6-fluoro-1H-indazol-4-yl)imidazo[1,2-a]pyridin-2-yl)-2-fluorocyclopropane-1-carboxamide] was run?
**A.** The IC50 was < 0.1 µM.

**Q.** How did the IC50 turn out when `CCCCC(=O)Nc1nc2ccc(-c3c(C)ccc4[nH]ncc34)cc2s1` [Example 9, N-(6-(5-methyl-1H-indazol-4-yl)benzo[d]thiazol-2-yl)pentanamide] was run?
**A.** The IC50 was > 1 µM.

**Q.** Which IC50 does the source give for `O=C(Nc1cc2cc(-c3c(Cl)c(F)c(OC(F)(F)F)c4[nH]ncc34)ccn2n1)[C@@H]1C[C@@H]1F` [Example 607, (1S,2S)-N-(5-(5-chloro-6-fluoro-7-(trifluoromethoxy)-1H-indazol-4-yl)pyrazolo[1,5-a]pyridin-2-yl)-2-fluorocyclopropane-1-carboxamide] here?
**A.** Its IC50 is < 0.1 µM.

**Q.** Which IC50 does the source give for `CNC(C)c1c(F)c(Cl)c(-c2ccc3nc(NC(=O)[C@@H]4C[C@@H]4F)cn3c2)c2cn[nH]c12` (stereo partly drawn) [Example 402, (1S,2S)-N-(6-(5-chloro-6-fluoro-7-(1-(methylamino)ethyl)-1H-indazol-4-yl)imidazo[1,2-a]pyridin-2-yl)-2-fluorocyclopropane-1-carboxamide] here?
**A.** Its IC50 is 0.101 to 0.5 µM.

**Q.** Which IC50 does the source give for `O=C(Nc1cn2cc(-c3c(C(F)(F)F)ccc4[nH]ncc34)ccc2n1)C1CC1` [Example 226, N-(6-(5-(trifluoromethyl)-1H-indazol-4-yl)imidazo[1,2-a]pyridin-2-yl)cyclopropanecarboxamide] here?
**A.** The IC50 was < 0.1 µM.

**Q.** `O=C(Nc1cn2cc(-c3c(Cl)c(F)c(OC4CC4)c4[nH]ncc34)ccc2n1)[C@@H]1C[C@@H]1F` [Example 401, (1S,2S)-N-(6-(5-chloro-7-cyclopropoxy-6-fluoro-1H-indazol-4-yl)imidazo[1,2-a]pyridin-2-yl)-2-fluorocyclopropane-1-carboxamide] was tested. Which IC50 did it give?
**A.** Its IC50 is < 0.1 µM.

**Q.** `CN(CCO)c1c(F)c(Cl)c(-c2ccc3nc(NC(=O)[C@@H]4C[C@@H]4F)sc3c2)c2cn[nH]c12` [Example 93, (1S,2S)-N-(6-(5-chloro-6-fluoro-7-((2-hydroxyethyl)(methyl)amino)-1H-indazol-4-yl)benzo[d]thiazol-2-yl)-2-fluorocyclopropanecarboxamide] was tested. Which IC50 did it give?
**A.** The IC50 was < 0.1 µM.

**Q.** `CSc1ccc2[nH]ncc2c1-c1ccc2nc(NC(=O)C3CC3)cn2c1` [Example 247, N-(6-(5-(methylthio)-1H-indazol-4-yl)imidazo[1,2-a]pyridin-2-yl)cyclopropanecarboxamide] was tested. Which IC50 did it give?
**A.** The IC50 was < 0.1 µM.

**Q.** With `O=C(Nc1nc2ccc(-c3cccc4[nH]ncc34)cc2s1)C1CC1` [Example 14, N-(6-(1H-indazol-4-yl)benzo[d]thiazol-2-yl)cyclopropanecarboxamide] as the molecule, how does the IC50 read?
**A.** Its IC50 is > 1 µM.

**Q.** `Cc1c(F)c(Cl)c2[nH]ncc2c1-c1ccc2nc(NC(=O)[C@@H]3C[C@@H]3F)cn2c1` [Example 260, (1S,2S)-N-(6-(7-chloro-6-fluoro-5-methyl-1H-indazol-4-yl)imidazo[1,2-a]pyridin-2-yl)-2-fluorocyclopropane-1-carboxamide] was tested. Which IC50 did it give?
**A.** The IC50 was < 0.1 µM.

**Q.** `CN(Cc1cccnc1)c1c(F)c(Cl)c(-c2ccc3nc(NC(=O)[C@@H]4C[C@@H]4F)cn3c2)c2cn[nH]c12` [Example 349, (1S,2S)-N-(6-(5-chloro-6-fluoro-7-(methyl(pyridin-3-ylmethyl)amino)-1H-indazol-4-yl)imidazo[1,2-a]pyridin-2-yl)-2-fluorocyclopropane-1-carboxamide] was tested. Which IC50 did it give?
**A.** The IC50 was < 0.1 µM.

**Q.** For `COC[C@@H](C)c1c(F)c(Cl)c(-c2ccc3nc(NC(=O)[C@@H]4C[C@@H]4F)cn3c2)c2cn[nH]c12` [Example 423, (1S,2S)-N-(6-(5-chloro-6-fluoro-7-((S)-1-methoxypropan-2-yl)-1H-indazol-4-yl)imidazo[1,2-a]pyridin-2-yl)-2-fluorocyclopropane-1-carboxamide], which IC50 is on record?
**A.** Its IC50 is < 0.1 µM.

**Q.** How did the IC50 turn out when `CNC1CCC(N(C)c2c(F)c(Cl)c(-c3ccn4nc(NC(=O)[C@@H]5C[C@@H]5F)cc4c3)c3cn[nH]c23)CC1` (stereo partly drawn) [Example 504, (1S,2S)-N-(5-(5-chloro-6-fluoro-7-(methyl((1R,4R)-4-(methylamino)cyclohexyl)amino)-1H-indazol-4-yl)pyrazolo[1,5-a]pyridin-2-yl)-2-fluorocyclopropane-1-carboxamide] was run?
**A.** The IC50 was < 0.1 µM.

**Q.** With `CS(=O)(=O)c1c(F)c(Cl)c(-c2ccn3nc(NC(=O)[C@@H]4C[C@@H]4F)cc3c2)c2cn[nH]c12` [Example 486, (1S,2S)-N-(5-(5-chloro-6-fluoro-7-(methylsulfonyl)-1H-indazol-4-yl)pyrazolo[1,5-a]pyridin-2-yl)-2-fluorocyclopropane-1-carboxamide] as the molecule, how does the IC50 read?
**A.** The IC50 was < 0.1 µM.

**Q.** `O=C(Nc1cc2cc(-c3c(Cl)c(F)c(O)c4[nH]ncc34)ccn2n1)[C@@H]1C[C@@H]1F` [Example 528, (1S,2S)-N-(5-(5-chloro-6-fluoro-7-hydroxy-1H-indazol-4-yl)pyrazolo[1,5-a]pyridin-2-yl)-2-fluorocyclopropane-1-carboxamide] was tested. Which IC50 did it give?
**A.** The IC50 was < 0.1 µM.

**Q.** `CN(c1ncncn1)c1c(F)c(Cl)c(-c2ccn3nc(NC(=O)[C@@H]4C[C@@H]4F)cc3c2)c2cn[nH]c12` [Example 617, (1S,2S)-N-(5-(5-chloro-6-fluoro-7-(methyl(1,3,5-triazin-2-yl)amino)-1H-indazol-4-yl)pyrazolo[1,5-a]pyridin-2-yl)-2-fluorocyclopropane-1-carboxamide] was tested. Which IC50 did it give?
**A.** Its IC50 is < 0.1 µM.

**Q.** How did the IC50 turn out when `C=CC(=O)Nc1cc(Cl)c(-c2ccc3nc(NC(=O)[C@@H]4C[C@@H]4F)cn3c2)c2cn[nH]c12` [Example 276, (1S,2S)-N-(6-(7-acrylamido-5-chloro-1H-indazol-4-yl)imidazo[1,2-a]pyridin-2-yl)-2-fluorocyclopropane-1-carboxamide] was run?
**A.** The IC50 was < 0.1 µM.

**Q.** For `CC(Nc1c(F)c(Cl)c(-c2ccc3nc(NC(=O)[C@@H]4C[C@@H]4F)cn3c2)c2cn[nH]c12)C(F)F` (stereo partly drawn) [Example 425, (1S,2S)-N-(6-(5-chloro-7-((1,1-difluoropropan-2-yl)amino)-6-fluoro-1H-indazol-4-yl)imidazo[1,2-a]pyridin-2-yl)-2-fluorocyclopropane-1-carboxamide], which IC50 is on record?
**A.** The IC50 was < 0.1 µM.

**Q.** How did the IC50 turn out when `O=C(Nc1cn2cc(-c3c(Cl)c(F)c(C(F)F)c4[nH]ncc34)ccc2n1)[C@@H]1C[C@@H]1F` [Example 331, (1S,2S)-N-(6-(5-chloro-7-(difluoromethyl)-6-fluoro-1H-indazol-4-yl)imidazo[1,2-a]pyridin-2-yl)-2-fluorocyclopropane-1-carboxamide] was run?
**A.** The IC50 was < 0.1 µM.

**Q.** How did the IC50 turn out when `Cc1c(F)c(C(=O)O)c2[nH]ncc2c1-c1ccc2nc(NC(=O)[C@@H]3C[C@@H]3F)cn2c1` [Example 313, 6-fluoro-4-(2-((1S,2S)-2-fluorocyclopropane-1-carboxamido)imidazo[1,2-a]pyridin-6-yl)-5-methyl-1H-indazole-7-carboxylic acid] was run?
**A.** The IC50 was > 1 µM.

**Q.** How did the IC50 turn out when `CC(C)(C)OC(=O)c1ccc2[nH]ncc2c1-c1ccc2nc(NC(=O)C3CC3)sc2c1` [Example 21, tert-butyl 4-(2-(cyclopropanecarboxamido)benzo[d]thiazol-6-yl)-1H-indazole-5-carboxylate] was run?
**A.** The IC50 was > 1 µM.

**Q.** `Cc1c(F)cc2[nH]nc(I)c2c1-c1ccc2nc(NC(=O)[C@@H]3C[C@@H]3F)sc2c1` [Example 45, (1S,2S)-2-fluoro-N-(6-(6-fluoro-3-iodo-5-methyl-1H-indazol-4-yl)benzo[d]thiazol-2-yl)cyclopropane-1-carboxamide] was tested. Which IC50 did it give?
**A.** The IC50 was > 1 µM.

**Q.** `Cc1ccc2[nH]ncc2c1-c1ccc2nc(NC(=O)C3CC3(F)F)sc2c1` (stereo not shown) [Example 5, 2,2-difluoro-N-(6-(5-methyl-1H-indazol-4-yl)benzo[d]thiazol-2-yl)cyclopropane-1-carboxamide] was tested. Which IC50 did it give?
**A.** Its IC50 is 0.101 to 0.5 µM.

**Q.** How did the IC50 turn out when `CNC(=O)N(C)c1c(F)c(Cl)c(-c2ccc3nc(NC(=O)[C@@H]4C[C@@H]4F)cn3c2)c2cn[nH]c12` [Example 435, (1S,2S)-N-(6-(5-chloro-7-(1,3-dimethylureido)-6-fluoro-1H-indazol-4-yl)imidazo[1,2-a]pyridin-2-yl)-2-fluorocyclopropane-1-carboxamide] was run?
**A.** Its IC50 is < 0.1 µM.
